From PMC7036132, “Effects of the Salt-Processing Method on the Pharmacokinetics and Tissue Distribution of Orally Administered Morinda officinalis How. Extract” (Journal of Analytical Methods in Chemistry, 2020)
Where “and” joins values, the source holds several entries; their conditions need not be identical. Equal values may be shown once.

How the values were obtained:
[1] = Tissue distribution after oral administration of MO and SMO extract; assay type: in vivo, SD rats; settings: rat; 0.25, 1, 3 and 6 h after oral MO or SMO extract 40 g/kg
Experimental: (§1) For LC-MS/MS analysis, data acquisition and instrument control were performed using MassLynx 4.1 software (Waters Corp., Milford, MA, USA). The analysis column was an Acquity UPLC HSS T3 column (100 mm × 2.1 mm, 1.8 μm, Waters) with a temperature of 40°C. The mobile phase was acetonitrile containing 0.1% formic acid (A) and 0.1% formic acid aqueous solution (B). The elution gradient was 0.00–0.50 min with 2% B; 0.51–5.00 min with 2%–30% B; and 5.01–7.00 min with 40% B. The flow rate was 0.2 mL/min.
(§2) The Waters triple quadruple mass spectrometer (Xevo TQD, Waters Corp., Milford, MA, USA) equipped with an electrospray ionization source (ESI) was used in negative ion mode. The desolvation gas was nitrogen with a flow rate of 500 L/h at a temperature of 250°C. All detected compounds were measured in multiple reaction monitoring (MRM) mode.
The whole tissue was cut into pieces and homogenized with ice-cold 0.9% (m/v) sodium chloride solution (1 : 9, w/v). Using 50 μL of tissue homogenate, the tissue samples were prepared in the same way as the plasma samples.
MO and SMO ethanol extract (40 g/kg) was orally administered to SD rats (weight, 180–220 g, n = 6), at 0.25, 1, 3, and 6 h, respectively. […]

[2] = Pharmacokinetics in rat plasma after oral administration of MO and SMO extract (UPLC-MS/MS); assay type: in vivo, Sprague-Dawley (SD) rats; settings: for Cmax: rat, plasma, po, 40 g/kg; for Cmax / AUC (0-t) / AUC (0-∞) / CL/F / MRT (0-t) / T max / V/F / t1/2z: n = 6
Experimental: as §1, §2
10 μL of IS working solution and 400 μL of methanol were added to 100 μL plasma. The solution was vortexed for 10 min and then centrifuged at 12,000 rpm for 5 min. The supernatant was shifted to another centrifugation tube and dried with nitrogen at 37°C. The residue was redissolved in 100 μL acetonitrile and centrifuged for 5 min at 12,000 rpm. Five microliters of supernatant was drawn and analyzed by UPLC-MS/MS.
The SD rats (6, male) were housed at 22 ± 2°C and fasted for 12 h with drinking water available ad libitum. MO and SMO ethanol extract were orally administered at a dose of 40 g/kg (equivalent to 6.44 and 3.95 mg/kg of monotropein, 0.088 and 0.091 mg/kg of rubiadin, and 0.174 and 0.178 mg/kg of rubiadin 1-methyl ether). Blood samples (0.5 mL) were collected from the venous plexus of the eye socket at 0.083, 0.25, 0.5, 1.0, 1.5, 2.0, 2.5, 4.0, 6.0, 12.0, and 24 h under anesthesia. Then, the blood samples were centrifuged at 4500 rpm for 10 min, and then the plasma was immediately transferred to new tubes and stored at −80°C until analysis. The pharmacokinetic parameters were calculated using DAS software (3.0 version, China Food and Drug Administration) based on noncompartmental method. All data were recorded as mean ± SD.

[3] = male, Sprague-Dawley, oral MO extract 40 g/kg
[4] = male, Sprague-Dawley, oral SMO extract 40 g/kg

Concentration in lung tissue [1]	Cmax [2, 3] [ng/mL]	Cmax [2, 4] [ng/mL]	Shape of plasma concentration-time curve ([2]; oral MO and SMO extract 40 g/kg)	AUC (0-t) ([2]; oral MO extract 40 g/kg) [μg/L ∗ h]	AUC (0-∞) ([2]; oral MO extract 40 g/kg) [μg/L ∗ h]	CL/F ([2]; oral MO extract 40 g/kg) [L/g/h]	MRT (0-t) ([2]; oral MO extract 40 g/kg) [H]	T max ([2]; oral MO extract 40 g/kg)	V/F ([2]; oral MO extract 40 g/kg) [L/g]	t1/2z ([2]; oral MO extract 40 g/kg) [H]	AUC (0-t) ([2]; oral SMO extract 40 g/kg) [μg/L ∗ h]	AUC (0-∞) ([2]; oral SMO extract 40 g/kg) [μg/L ∗ h]	CL/F ([2]; oral SMO extract 40 g/kg) [L/g/h]	MRT (0-t) ([2]; oral SMO extract 40 g/kg) [H]	T max ([2]; oral SMO extract 40 g/kg)	V/F ([2]; oral SMO extract 40 g/kg) [L/g]	t1/2z ([2]; oral SMO extract 40 g/kg) [H]	Tmax ([2]; male, Sprague-Dawley, oral extract 40 g/kg, MO or SMO group not specified) [h]	Cmax and AUC0-t, SMO groups compared with the MO group ([2]; oral extract 40 g/kg)	SMILES
could not be quantified	23.3 ± 0.764	23.3 ± 0.676	obvious double-peak phenomenon	44.22 ± 0.932	48.952 ± 1.559	0.818 ± 0.265	3.863 ± 0.184	1.0 H and 1.0 ± 0.00 H	14.447 ± 2.143	12.291 ± 2.09	26.941 ± 1.423	27.045 ± 1.338	1.482 ± 0.750	1.686 ± 0.025	0.5 H and 0.5 ± 0.00 H	12.239 ± 9.027	5.611 ± 3.958			O=C(O)C1=CO[C@@H](O[C@@H]2O[C@H](CO)[C@@H](O)[C@H](O)[C@H]2O)[C@H]2[C@@H]1C=C[C@]2(O)CO [Monotropein, monotropein]
	46.7 ± 12.9	50.2 ± 8.9		152.252 ± 7.098	153.816 ± 7.169	0.261 ± 0.012	6.062 ± 0.272	1.5 ± 0.00 H	1.442 ± 0.090	3.838 ± 0.196	169.355 ± 8.836	176.441 ± 18.283	0.228 ± 0.022	5.89 ± 0.265	1.5 ± 0.00 H	1.579 ± 0.842	5.006 ± 3.383	1.5	elevated remarkably	Cc1c(O)cc2c(c1O)C(=O)c1ccccc1C2=O [Rubiadin, rubiadin]
